The numbers were not newly measured in article PMC4291223, “Inhibitors of CLK Protein Kinases Suppress Cell Growth and Induce Apoptosis by Modulating Pre-mRNA Splicing” (PLoS ONE, 2015), which cites them from elsewhere.

This data set relates to CLK1 and CLK4. Further details: method as in PMID 15010457. Conditions: cited from earlier work.

For the compound `CCN1/C(=C/C(C)=O)Sc2ccc(OC)cc21` [TG003], the CLK selectivity entry was “selectively inhibits CLK1 and CLK4”.
